Measured values as given in article PMC11761247, “Antioxidant, Anti-α-Glucosidase, Anti-Tyrosinase, and Anti-Acetylcholinesterase Components from Stem of Rhamnus formosana with Molecular Docking Study” (Antioxidants, 2024).
Like-named read-outs stand apart in the source and are kept apart here.

How the values were obtained:
[1] = DPPH free radical scavenging activity; conditions: for EC50: isolated compounds (Table 5), read-out: SC50 DPPH
Protocol: DPPH analysis was performed according to the previously published procedure. A 400 μM DPPH radical solution was prepared in EtOH. The tested samples were dissolved in DMSO to prepare stock solutions, which were then diluted to the desired concentrations with EtOH. In a 96-well plate, 100 μL of each diluted tested sample solution was mixed with 100 μL of the DPPH radical solution (200 μM). The mixture was allowed to react in the dark at room temperature for 30 min. After the reaction, the absorbance at 520 nm was measured using an ELISA reader. DPPH radical scavenging activity was calculated by the following equation:(1) Scavenging rate (%)=(OD0−OD1)/OD0 where OD0 is absorbance of the control and OD 1 is that of the tested sample.

[2] = ABTS radical scavenging activity; conditions: for EC50: isolated compounds (Table 5), read-out: SC50 ABTS
Protocol: The analysis of ABTS was performed according to the previously published method. The ABTS solution (28 mM) was mixed with […] solution (9.6 mM) in a 1:1 ratio (v/v) and allowed to react in the dark at room temperature for 16 h to generate the ABTS radical solution. The ABTS radical solution was then diluted with EtOH until the absorbance at 740 nm reached 0.70 ± 0.02. The tested samples were dissolved in DMSO to prepare stock solutions, which were subsequently diluted to the desired concentrations with EtOH. In a 96-well plate, 190 μL of the diluted ABTS radical solution was mixed with 10 μL of each diluted sample solution. The mixture was allowed to react in the dark at room temperature for 6 min. The absorbance at 740 nm was then measured using an ELISA reader. The ABTS radical scavenging activity was calculated by the following equation:(2) Scavenging rate (%)=(OD0−OD1)/OD0×100 where OD0 is absorbance of the control and OD1 is that of the tested sample.

[3] = Superoxide radical scavenging activity (NBT/PMS/NADH); conditions: for EC50: isolated compounds (Table 5), read-out: SC50 Superoxide
Protocol: The superoxide scavenging activity assay was performed based on the published method. The superoxide radical was prepared in a 16 mM Tris-HCl buffer (pH 8.0) containing 50 µL of NBT (300 µM), 50 µL of PMS (120 µM), and 50 µL of different concentrations of the tested sample. The reaction was initiated by adding 50 µL of the NADH (468 µM) solution to the mixture and incubated at room temperature for 5 min. The activity of the samples was determined by calculating the decrease in absorbance measured at 560 nm by the following equation:(3) Scavenging rate (%)=(OD0−OD1)/OD0×100 where OD0 is absorbance of the control and OD1 is that of the tested sample.

[4] = Ferric reducing antioxidant power (FRAP)
Protocol: The analysis was performed using the published method. The working solution was prepared by mixing acetate buffer (pH 3.6), ferric chloride solution (20 mM), and TPTZ solution (10 mM TPTZ in 40 mM HCl) in a 10:1:1 ratio. Then, 900 µL of this solution was warmed to 37 °C and mixed with 100 µL of the diluted sample, blank, or standard in a microcentrifuge tube. The tubes were vortexed and incubated in a dry bath at 37 °C for 40 min. Absorbance was measured at 593 nm. The standard curve was linear from 0 to 100 mM Trolox, and results were expressed as mM TE/g dry weight.

α-glucosidase = molecular target: T1, α-glucosidase (Saccharomyces cerevisiae, UniProt P53341); assay: α-Glucosidase inhibitory activity (p-NPG substrate); type: biochemical
T1 construct: purchased Sigma-Aldrich

AChE = molecular target: T2, AChE (Electrophorus electricus, UniProt O42275); assay: biochemical
T2 construct: purchased Sigma-Aldrich
Protocol: Determination of AChE inhibition was conducted based on the reported method with slight modifications. Sodium phosphate buffer (0.1 M, pH 8.0, 140 µL), test compound solution (20 µL), enzyme solution (15 µL of AChE at 0.2 units/mL), and DTNB (15 mM, 10 µL) were mixed and incubated for 10 min at room temperature. The reaction was then initiated by adding 10 µL of the substrate (AChI, 15 mM).

[5] = isolated compounds (Table 5), Trolox equivalents
[6] = solvent extracts, concentration for 50% free radical scavenging

T1 sequence (P53341 whole entry): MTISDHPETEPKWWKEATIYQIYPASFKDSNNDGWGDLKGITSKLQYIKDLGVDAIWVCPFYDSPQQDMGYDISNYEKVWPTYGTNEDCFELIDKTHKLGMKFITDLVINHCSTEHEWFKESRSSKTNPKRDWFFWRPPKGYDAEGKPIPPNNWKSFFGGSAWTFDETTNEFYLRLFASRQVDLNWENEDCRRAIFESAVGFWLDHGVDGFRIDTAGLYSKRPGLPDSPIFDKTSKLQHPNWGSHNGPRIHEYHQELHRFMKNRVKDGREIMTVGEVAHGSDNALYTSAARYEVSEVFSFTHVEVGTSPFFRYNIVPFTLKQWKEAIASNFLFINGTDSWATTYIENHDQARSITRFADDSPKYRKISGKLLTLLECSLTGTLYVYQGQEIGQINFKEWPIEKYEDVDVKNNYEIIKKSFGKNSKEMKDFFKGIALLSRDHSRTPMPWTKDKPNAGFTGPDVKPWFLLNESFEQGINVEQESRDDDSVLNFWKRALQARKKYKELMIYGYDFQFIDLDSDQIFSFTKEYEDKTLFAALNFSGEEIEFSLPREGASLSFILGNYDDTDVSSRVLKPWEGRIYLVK
T2 sequence (O42275 24-633): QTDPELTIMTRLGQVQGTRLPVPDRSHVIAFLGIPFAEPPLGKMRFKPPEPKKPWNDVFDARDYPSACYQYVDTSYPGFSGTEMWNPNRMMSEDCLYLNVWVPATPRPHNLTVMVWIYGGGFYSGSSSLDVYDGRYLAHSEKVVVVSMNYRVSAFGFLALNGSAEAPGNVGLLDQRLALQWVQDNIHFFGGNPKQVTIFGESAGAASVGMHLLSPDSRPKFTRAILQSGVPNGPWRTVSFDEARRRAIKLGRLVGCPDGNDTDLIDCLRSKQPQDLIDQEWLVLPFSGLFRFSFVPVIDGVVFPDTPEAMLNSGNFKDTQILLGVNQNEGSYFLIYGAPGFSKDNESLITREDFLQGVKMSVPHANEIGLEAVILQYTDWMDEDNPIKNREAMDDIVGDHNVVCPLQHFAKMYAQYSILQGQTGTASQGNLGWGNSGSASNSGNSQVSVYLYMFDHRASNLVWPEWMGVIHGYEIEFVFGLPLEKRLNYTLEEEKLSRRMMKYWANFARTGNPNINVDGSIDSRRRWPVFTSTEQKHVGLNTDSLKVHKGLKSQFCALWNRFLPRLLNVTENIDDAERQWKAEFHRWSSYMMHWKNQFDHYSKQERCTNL

O=c1c(O)c(-c2ccc(O)c(O)c2)oc2cc(O)cc(O)c12 [Quercetin (2), quercetin]
EC50 [1]: 16.1 ± 2.62 µM
EC50 [2]: 5.7 ± 0.92 µM
EC50 [3]: 85.8 ± 4.76 µM
TE FRAP [4, 5]: 1026.73 ± 16.69 mM/g
TE FRAP ([4]; isolated compounds (Table 5), Trolox equivalents, listed as quercetin (2)): 1026.73 ± 16.69 mM/g

O=c1c(O)c(-c2ccc(O)cc2)oc2cc(O)cc(O)c12 [Kaempferol (1), kaempferol]
EC50 [1]: 61.7 ± 7.36 µM
EC50 [2]: 15.3 ± 0.94 µM
EC50 [3]: 271 ± 20.7 µM
TE FRAP [4, 5]: 1046.16 ± 23.78 mM/g
TE FRAP ([4]; isolated compounds (Table 5), Trolox equivalents, listed as kaempferol (1)): 1046.16 ± 23.78 mM/g

Cc1cc(C(C)(C)C)c(O)c(C(C)(C)C)c1 [BHT, butylated hydroxytoluene, reference compound]
EC50 [1]: 708 ± 10.8 µM
SC50 DPPH [1, 6]: 156.04 ± 14.31 µg/mL
EC50 [2]: 37.5 ± 4.31 µM
SC50 ABTS [2, 6]: 9.12 ± 1.85 µg/mL
TE FRAP [4, 5]: 5712.61 ± 176.27 mM/g
TE FRAP ([4]; solvent extracts (Table 2), Trolox equivalents in mM per gram of extract): 3196.39 ± 115.26 mM/g

Cc1cc(O)c2c(c1)C(=O)c1cc(O)cc(O)c1C2=O [Emodin (3), emodin]
EC50 [1]: > 200 µM
EC50 [2]: > 200 µM
EC50 [3]: 232 ± 15.9 µM
TE FRAP [4, 5]: <1 mM/g
IC50 (α-glucosidase): 58.9 ± 3.39 µM
IC50 (AChE): 77.6 ± 6.28 µM

O=C(/C=C/c1ccc(O)c(O)c1)O[C@@H]1C[C@](O)(C(=O)O)C[C@@H](O)[C@H]1O [Chlorogenic acid, chlorogenic acid, reference compound]
IC50 (AChE; isolated compounds (Table 6), read-out: IC50 AChE (converted)): 303 ± 25.2 µM
IC50 (AChE; solvent extracts (Table 3), read-out: IC50 AChE (converted)): 496 µM

O=c1cc(-c2ccc(O)c(O)c2)oc2cc(O[C@@H]3O[C@H](CO)[C@@H](O)[C@H](O)[C@H]3O)cc(O)c12 [Cynaroside, reference compound]
EC50 [3]: 20 ± 1.7 µM
SC50 Superoxide [3, 6]: 12.03 ± 4.20 µg/mL

COc1cc(O)c2c(c1)C(=O)c1cc(C)cc(O)c1C2=O [Physcion (5), physcion]
EC50 [1]: > 200 µM
EC50 [2]: > 200 µM
EC50 [3]: > 200 µM
TE FRAP [4, 5]: <1 mM/g
IC50 (α-glucosidase): > 800 µM
IC50 (AChE): 76 ± 1.34 µM

Cc1cc(O)c2c(c1)C(=O)c1cccc(O)c1C2=O [Chrysophanol (4), chrysophanol]
EC50 [1]: > 200 µM
EC50 [2]: > 200 µM
EC50 [3]: > 200 µM
TE FRAP [4, 5]: <1 mM/g
IC50 (α-glucosidase): 604 ± 44.8 µM
IC50 (AChE): > 400 µM
